Data published in US8680139B2 (Progenra, priority 2009, dated 2014).

target: T1, USP7 (Homo sapiens, UniProt Q93009); assay: USP7, Ub-PLA2 assay; type: biochemical; conditions: Ub-PLA2 / NBD C6-HPC fluorescence, 30 minute preincubation; read-out: EC50 for inhibition of USP7
T1 construct: full length human USP7 protein; made in house
Description: The purpose of this assay is to measure the inhibition of USP7 by various compounds of the invention synthesized according to the above-described methods. […] The vehicle control was 100% (v/v) DMSO. 1.6 μL aliquots of the diluted test compound and controls were dispensed into individual wells in a black walled 96 well plate. […] The data were normalized within a plate relative to the control wells using the equation % inhibition=(100−(((RFUcompound−RFUmean NEM) / (RFUmean DMSO−RFUmean NEM))×100)).

T1 sequence (Q93009 whole entry): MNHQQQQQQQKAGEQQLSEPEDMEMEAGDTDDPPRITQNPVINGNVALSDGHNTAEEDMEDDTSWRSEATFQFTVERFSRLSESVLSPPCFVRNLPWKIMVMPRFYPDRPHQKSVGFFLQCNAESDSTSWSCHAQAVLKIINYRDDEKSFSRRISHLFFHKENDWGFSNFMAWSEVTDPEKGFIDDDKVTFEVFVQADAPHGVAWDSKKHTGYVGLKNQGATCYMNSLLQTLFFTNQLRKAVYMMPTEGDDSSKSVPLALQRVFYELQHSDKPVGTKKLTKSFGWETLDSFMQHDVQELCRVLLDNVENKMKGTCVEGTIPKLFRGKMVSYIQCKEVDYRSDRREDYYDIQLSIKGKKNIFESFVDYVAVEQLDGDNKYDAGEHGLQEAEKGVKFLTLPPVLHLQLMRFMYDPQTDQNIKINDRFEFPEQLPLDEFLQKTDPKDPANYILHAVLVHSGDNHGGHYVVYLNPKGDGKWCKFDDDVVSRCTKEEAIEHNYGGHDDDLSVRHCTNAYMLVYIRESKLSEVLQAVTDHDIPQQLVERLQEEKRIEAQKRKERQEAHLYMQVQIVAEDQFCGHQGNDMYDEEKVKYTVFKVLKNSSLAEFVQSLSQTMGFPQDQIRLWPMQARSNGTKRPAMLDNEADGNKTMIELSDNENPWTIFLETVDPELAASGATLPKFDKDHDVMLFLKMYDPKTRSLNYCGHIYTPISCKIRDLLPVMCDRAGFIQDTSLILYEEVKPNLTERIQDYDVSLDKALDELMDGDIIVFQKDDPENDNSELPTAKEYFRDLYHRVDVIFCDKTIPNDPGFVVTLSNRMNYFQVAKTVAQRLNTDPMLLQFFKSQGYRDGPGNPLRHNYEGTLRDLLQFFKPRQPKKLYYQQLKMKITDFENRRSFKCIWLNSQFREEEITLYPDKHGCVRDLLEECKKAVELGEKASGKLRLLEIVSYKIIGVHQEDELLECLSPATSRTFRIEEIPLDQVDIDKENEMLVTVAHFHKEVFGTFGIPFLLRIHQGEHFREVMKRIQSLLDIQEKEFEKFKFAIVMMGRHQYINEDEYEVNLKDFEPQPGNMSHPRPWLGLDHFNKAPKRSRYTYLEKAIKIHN

| Structure (SMILES) | EC50 [µM] |
| --- | --- |
| CN1CCN(CCCNC(=O)c2cc([N+](=O)[O-])c(Sc3c(Cl)cncc3Cl)s2)CC1 [Example 65] | 1 to 10 |
| CN1CCN(C(=O)c2cc([N+](=O)[O-])c(Sc3c(Cl)cncc3Cl)s2)CC1 [Example 66, (5-((3,5-dichloropyridin-4-yl)thio)-4-nitrothiophen-2-yl)(4-methylpiperazin-1-yl)methanone] | 1 to 10 |
| COc1cccc(CN(C)C(=O)c2cc([N+](=O)[O-])c(Sc3c(Cl)cncc3Cl)s2)c1 [Example 67, 5-((3,5-dichloropyridin-4-yl)thio)-N-(3-methoxybenzyl)-N-methyl-4-nitrothiophene-2-carboxamide] | 1 to 10 |
| O=C(NCc1cccc(OC(F)(F)F)c1)c1cc([N+](=O)[O-])c(Sc2c(Cl)cncc2Cl)s1 [Example 68, 5-((3,5-dichloropyridin-4-yl)thio)-4-nitro-N-(3-(trifluoromethoxy)benzyl)thiophene-2-carboxamide] | 1 to 10 |
| COc1cc(CNC(=O)c2cc([N+](=O)[O-])c(Sc3c(Cl)cncc3Cl)s2)cc(OC)c1 [Example 69, 5-((3,5-dichloropyridin-4-yl)thio)-N-(3,5-dimethoxybenzyl)-4-nitrothiophene-2-carboxamide] | 1 to 10 |
| O=C(NCc1ccc2c(c1)CCO2)c1cc([N+](=O)[O-])c(Sc2c(Cl)cncc2Cl)s1 [Example 70, 5-((3,5-dichloropyridin-4-yl)thio)-N-((2,3-dihydrobenzofuran-5-yl)methyl)-4-nitrothiophene-2-carboxamide] | 1 to 10 |
| O=C(Nc1cc(-c2ccccc2)n[nH]1)c1cc([N+](=O)[O-])c(Sc2c(Cl)cncc2Cl)s1 [Example 71, 5-((3,5-dichloropyridin-4-yl)thio)-4-nitro-N-(3-phenyl-1H-pyrazol-5-yl)thiophene-2-carboxamide] | 1 to 10 |
| O=C(c1cc([N+](=O)[O-])c(Sc2c(Cl)cncc2Cl)s1)N1CCC(CO)CC1 [Example 73, (5-((3,5-dichloropyridin-4-yl)thio)-4-nitrothiophen-2-yl)(4-(hydroxymethyl)piperidin-1-yl)methanone] | 1 to 10 |
| O=C(c1cc([N+](=O)[O-])c(Sc2c(Cl)cncc2Cl)s1)N1CCC(F)CC1 [Example 74, (5-((3,5-dichloropyridin-4-yl)thio)-4-nitrothiophen-2-yl)(4-fluoropiperidin-1-yl)methanone] | 1 to 10 |
| O=C(NC1C2CC3CC(C2)CC1C3)c1cc([N+](=O)[O-])c(Sc2c(Cl)cncc2Cl)s1 (stereo not drawn) [Example 75, N-((1r,3r,5r,7r)-adamantan-2-yl)-5-((3,5-dichloropyridin-4-yl)thio)-4-nitrothiophene-2-carboxamide] | 1 to 10 |
| O=C(NC12CC3CC(CC(C3)C1)C2)c1cc([N+](=O)[O-])c(Sc2c(Cl)cncc2Cl)s1 [Example 76, N-((3s,5s,7s)-adamantan-1-yl)-5-((3,5-dichloropyridin-4-yl)thio)-4-nitrothiophene-2-carboxamide] | > 10 |
| O=C(NC1CCC(O)CC1)c1cc([N+](=O)[O-])c(Sc2c(Cl)cncc2Cl)s1 (stereo not drawn) [Example 77, 5-((3,5-dichloropyridin-4-yl)thio)-N-(4-hydroxycyclohexyl)-4-nitrothiophene-2-carboxamide] | 1 to 10 |
| O=C(Nc1cccc2cccnc12)c1cc([N+](=O)[O-])c(Sc2c(Cl)cncc2Cl)s1 [Example 78, 5-((3,5-dichloropyridin-4-yl)thio)-4-nitro-N-(quinolin-8-yl)thiophene-2-carboxamide] | > 10 |
| CN1CCN(c2ccc(NC(=O)c3cc([N+](=O)[O-])c(Sc4c(Cl)cncc4Cl)s3)cc2)CC1 [Example 79, 5-((3,5-dichloropyridin-4-yl)thio)-N-(4-(4-methylpiperazin-1-yl)phenyl)-4-nitrothiophene-2-carboxamide] | 1 to 10 |
| CC1(C)CCN(C(=O)c2cc([N+](=O)[O-])c(Sc3c(Cl)cncc3Cl)s2)CC1 [Example 80, (5-((3,5-dichloropyridin-4-yl)thio)-4-nitrothiophen-2-yl)(4,4-dimethylpiperidin-1-yl)methanone] | 1 to 10 |
| CN1CCC(NC(=O)c2cc([N+](=O)[O-])c(Sc3ccc(Cl)cc3Cl)s2)CC1 [Example 81, 5-((2,4-dichlorophenyl)thio)-N-(1-methylpiperidin-4-yl)-4-nitrothiophene-2-carboxamide] | 1 to 10 |
| O=C(NCCCN1CCCC1=O)c1cc([N+](=O)[O-])c(Sc2ccc(Cl)cc2Cl)s1 [Example 82, 5-((2,4-dichlorophenyl)thio)-4-nitro-N-(3-(2-oxopyrrolidin-1-yl)propyl)thiophene-2-carboxamide] | 1 to 10 |
| O=C(c1cc([N+](=O)[O-])c(Sc2c(Cl)cncc2Cl)s1)N1CCCC(O)C1 (stereo not drawn) [Example 83, (5-((3,5-dichloropyridin-4-yl)thio)-4-nitrothiophen-2-yl)(3-hydroxypiperidin-1-yl)methanone] | 1 to 10 |
| O=C(NCCC1CCN(Cc2ccccc2)C1)c1cc([N+](=O)[O-])c(Sc2c(Cl)cncc2Cl)s1 (stereo not drawn) [Example 84, N-(2-(1-benzylpyrrolidin-3-yl)ethyl)-5-((3,5-dichloropyridin-4-yl)thio)-4-nitrothiophene-2-carboxamide] | > 10 |

Further lines, results first:

| EC50 [µM] | Structure (SMILES) |
| --- | --- |
| 1 to 10 | O=C(NCc1cccc(Cl)c1)c1cc([N+](=O)[O-])c(Sc2c(Cl)cncc2Cl)s1 [Example 57, N-(3-chlorobenzyl)-5-((3,5-dichloropyridin-4-yl)thio)-4-nitrothiophene-2-carboxamide] |
| 1 to 10 | O=C(NCc1cccc(-c2ccccc2)c1)c1cc([N+](=O)[O-])c(Sc2c(Cl)cncc2Cl)s1 [Example 58, N-([1,1′-biphenyl]-3-ylmethyl)-5-((3,5-dichloropyridin-4-yl)thio)-4-nitrothiophene-2-carboxamide] |
| 1 to 10 | O=C(NCCN1CCOCC1)c1cc([N+](=O)[O-])c(Sc2c(Cl)cncc2Cl)s1 [Example 59, 5-((3,5-dichloropyridin-4-yl)thio)-N-(2-morpholinoethyl)-4-nitrothiophene-2-carboxamide] |
| 1 to 10 | O=C(NCc1ccccc1Cl)c1cc([N+](=O)[O-])c(Sc2c(Cl)cncc2Cl)s1 [Example 60, N-(2-chlorobenzyl)-5-((3,5-dichloropyridin-4-yl)thio)-4-nitrothiophene-2-carboxamide] |
| 1 to 10 | O=C(c1cc([N+](=O)[O-])c(Sc2c(Cl)cncc2Cl)s1)N1CCN(CCO)CC1 [Example 61, (5-((3,5-dichloropyridin-4-yl)thio)-4-nitrothiophen-2-yl)(4-(2-hydroxyethyl)piperazin-1-yl)methanone] |
| 1 to 10 | CC(C)(C)OC(=O)CNC(=O)c1cc([N+](=O)[O-])c(Sc2c(Cl)cncc2Cl)s1 [Example 62, tert-butyl 2-(5-((3,5-dichloropyridin-4-yl)thio)-4-nitrothiophene-2-carboxamido)acetate] |
| 1 to 10 | O=C(NCc1ccc(-c2ccccc2)cc1)c1cc([N+](=O)[O-])c(Sc2c(Cl)cncc2Cl)s1 [Example 63, N-([1,1′-biphenyl]-4-ylmethyl)-5-((3,5-dichloropyridin-4-yl)thio)-4-nitrothiophene-2-carboxamide] |
| 1 to 10 | CN1CCN(CCNC(=O)c2cc([N+](=O)[O-])c(Sc3c(Cl)cncc3Cl)s2)CC1 [Example 64, 5-((3,5-dichloropyridin-4-yl)thio)-N-(2-(4-methylpiperazin-1-yl)ethyl)-4-nitrothiophene-2-carboxamide] |
